Here are results for two molecules from paper PMC10454728, “A Comparative Study on the Lysosomal Cation Channel TMEM175 Using Automated Whole-Cell Patch-Clamp, Lysosomal Patch-Clamp, and Solid Supported Membrane-Based Electrophysiology: Functional Characterization and High-Throughput Screening Assay Development” (International Journal of Molecular Sciences, 2023).

Molecules are shown by their SMILES. Values joined by “and” are separate entries in the source; they are usually repeats but may differ in a detail not shown here. Equal entries are not always repeated. “Also recorded” adds a separate entry of the source.

For assay [1], the target named is T1, TMEM175 (Homo sapiens, UniProt Q9BSA9).
T1 sequence (Q9BSA9 1-504): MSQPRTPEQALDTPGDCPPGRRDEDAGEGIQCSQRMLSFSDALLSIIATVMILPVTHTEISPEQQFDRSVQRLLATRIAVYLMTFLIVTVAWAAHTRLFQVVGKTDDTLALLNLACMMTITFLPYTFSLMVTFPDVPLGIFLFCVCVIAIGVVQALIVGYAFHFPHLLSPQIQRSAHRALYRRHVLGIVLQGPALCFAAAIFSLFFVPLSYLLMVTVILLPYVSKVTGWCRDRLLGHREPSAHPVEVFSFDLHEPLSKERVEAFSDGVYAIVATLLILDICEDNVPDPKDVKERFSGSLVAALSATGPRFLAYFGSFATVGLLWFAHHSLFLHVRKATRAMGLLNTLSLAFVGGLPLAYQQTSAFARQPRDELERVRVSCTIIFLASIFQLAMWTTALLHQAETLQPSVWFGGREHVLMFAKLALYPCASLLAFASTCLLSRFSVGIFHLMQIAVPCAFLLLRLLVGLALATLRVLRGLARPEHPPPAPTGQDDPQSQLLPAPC
Put plainly: SSME K+ flux compound assay on purified lysosomes overexpressing TMEM175 (SURFE2R 96SE). The assay is classed as biochemical. Conditions: for Relative current / maximum potentiation, SSME: Imax of dose-response curve, baseline 100%, (50 µM). The method, then: In brief, compound measurements using SSME are performed in a three-step process (Figure 6B). First, TMEM175-mediated K^+ translocation is measured through 50 mM K^+ concentration jumps. This represents the baseline current of TMEM175 activity (I0). […] Third, the activation through a 50 mM K^+ concentration jump is repeated, this time in the presence of the compound to record the modulated TMEM175 current (I). In this process, each individual sensor of the 96-well sensor plate is only exposed to a single concentration of the compound. The relative current amplitude I/I0 is used as a measure of the compound effect and averaged across sensors.
We applied 50 mM K^+ concentration jumps in the absence and presence of different compound concentrations to derive information about compound effects on K^+ flux through TMEM175; (B) Time dependence of recorded peak current amplitudes for the complete workflow, which involves multiple sequential measurements. […] The recording of each sensor well starts with the application of a control measurement, rinsing non-activating solution across the sensor (baseline recording). Afterwards, we performed three solution exchange measurements from 50 mM NaCl to 50 mM KCl to measure K^+ flux through TMEM175 (baseline TMEM175 current, I0). We then rinsed the sensor with non-activating solution containing the compound at a given concentration, followed by incubation of 15 min to equilibrate the sensors with the compound. Subsequently, the solution exchange from 50 mM NaCl to 50 mM KCl is repeated twice, but in the presence of the given compound concentration to determine the modulated peak current I. Afterwards, we repeated the measurement in the absence of the compound three times (wash-out) to recover the non-modulated TMEM175 current. We subtracted the average artifact current recorded with control lysosomes from I and I0 (Figure 1K), without considering off-target effects of the tested compound. […] Success rates were determined based on the QC criteria provided in the Methods section. […] We determined average values, AVGpos and AVGneg, and standard deviations, SDpos and SDneg, of the recorded peak currents. […] Error bars represent the SEM obtained from automated data analysis using DataControl96, based on variations of the currents obtained with the TMEM175 sample. Each compound concentration was recorded with at least N = 8 sensors. […] Imin was always fixed to 0 for inhibitors or 1 for enhancers, as indicated. […] A total of 50 µL of 0.1 mM octadecanethiol in isopropanol was added to each sensor well, following incubation for 30 min at room temperature to form an alkanethiol monolayer on the sensor surface. Subsequently, the sensors were washed twice with isopropanol and three times with ddH2O, before dry-tapping on a tissue. The subsequent process of sensor coating with lipid and lysosomes was carried out manually for the SURFE^2R N1 and automated with the SURFE^2R 96SE serving as a pipetting robot. In both cases, 1.5 µL of 7.5 mg/mL 1,2-diphytanoyl-sn-glycero-3-phosphocholine (DPhPC) in n-decane was added to the center of the circular gold surface, followed by the addition of 50 µL of non-activating solution to form the SSM. The composition of the non-activating solution was adjusted for each experiment (Table 2). […] SSM-coated 96-well sensor plates were stored at −80 °C before use.

The target in assay [2] is T1, TMEM175. In words: Whole-cell automated patch-clamp (APC) Cs+ flux assay, SyncroPatch 384i, HEK293 overexpressing TMEM175. It is filed as cell-based. The method, then: To validate the APC assay, we compared currents between TMEM175-overexpressing cells and control HEK293 UT cells. […] In our compound application protocol, which was used to evaluate compound potencies, we consistently administered tool compounds to assess their impact on TMEM175 activity (Figure 7C).
The voltage protocol generation and data collection were performed with PatchControl384 v1.9.0 and analyzed with DataControl384 v2.2.0. A multi-hole, medium resistance chip with four patch-clamp holes per well was used for recording.
DMSO remained constant at 0.2% and BSA at 0.05% in the external solution throughout the assay, if not stated otherwise.
The voltage protocol applied for the investigation of the tool compounds (Figure 7) consisted of a 500 ms ramp from −80 mV to +80 mV, followed by a 400 ms step from −80 mV to +80 mV before returning to the holding potential of 0 mV (Figure 7B). The maximum outward current amplitude obtained at +80 mV from the ramp section was used for analysis. To investigate the blinded test compounds (Figure 8), an alternative voltage protocol was applied. […] The maximum outward current amplitude obtained at 0 mV from the voltage step section was used for analysis. In both voltage protocols, voltage sweeps were repeated every 10 s and currents sampled at 10 kHz.
The application protocol for agonists consisted of two additions of extracellular physiological solution for a minimum of 3 min, followed by the external application of the test compound for a minimum of 2 min (Figure 7C).
Currents recorded after compound addition were normalized to the baseline current before compound addition, averaged, and plotted over the compound concentration to determine the EC50 and IC50 values.
On the technique in general: The patch-clamp technique gives a direct electrical read-out from membranes.

The test system of assay [3] is TMEM175. As to conditions: 100 µM, whole-cell configuration, +80 mV; ref [6]; cited from earlier work.
Assay [4] addresses T1, TMEM175. Put plainly: SSME H+ flux assay (pH jumps) on TMEM175 lysosomes (SURFE2R N1). It is filed as biochemical. Conditions: corresponding to ~pH 5; read-out: EC50 of H+ influx current vs Δc(H+). The text has this:
To further investigate the capability of TMEM175 to translocate protons using SSME, we performed H^+ concentration or pH jumps using the SURFE^2R N1. The non-activating solution was set to pH 7.6, defining both the lysosomal and cytosolic pH before the start of the experiment. By exchanging the non-activating for the activating solution, we acidified the cytosolic solution and stimulated H^+ influx through TMEM175 (Figure 5A).
However, the application of pH jumps lead to significant artifact currents of positive magnitude, as observed with the control lysosomes (Figure 5C). These artifacts are a result of protons interacting with the lipid membranes and/or unknown H^+ leak pathways through the lysosomal membrane. To conclude pure TMEM175-related H^+ currents, we subtracted the artifact currents from the currents recorded with the TMEM175 sample. When plotting ΔpH against the artifact-corrected average TMEM175 net H^+ current, we obtain a close-to-linear correlation (Figure 5D).
For comparison with the I/c curve reported for K^+ (Figure 3E), we calculated the difference in H^+ concentration across the lysosomal membrane Δc = cH^out − cH^in, which correlates linearly with the passive H^+ flux J = PH+Δc according to Fick’s law.
We used H^+ concentration or pH jumps to measure H^+ flux through TMEM175. Non-activating solution was set to pH 7.6, while activating solution contained different pH values between pH 7.4 and pH 4.6; (B) Representative current traces induced by pH jumps on lysosomes overexpressing TMEM175. All current traces were recorded with the same sensor, starting from the lowest ΔpH. […] The remaining current mostly reflects the background (artifact) current after full block of TMEM175; (C) Representative current traces from the same experiment on control lysosomes. […] This represents the artifact current also underlying the currents recorded with the TMEM175 sample; (D) SEM and average, artifact-corrected, normalized peak currents from N = 4 sensors, reflecting the H^+ flux through TMEM175, solely driven by the pH gradient. […]

As for `CCCCC/C=C\C/C=C\C/C=C\C/C=C\CCCC(=O)O` [Arachidonic Acid, arachidonic acid], on TMEM175 [1] (EC50 APC / EC50 SSME), the “Potency in SSME relative to APC (more potent in SSME)” value was 40 fold. The figures for the “Relative current / maximum potentiation, SSME” value at TMEM175 [1] and at TMEM175 [1] (listed as arachidonic acid) were 168 ± 5% (50 µM) and 168 ± 5%, respectively. The EC50 is 2.3 µM and 2.25 µM at TMEM175 [1] (tool enhancers, K+ flux, 50 mM K+ jump, pH 7.6, 0 mV, artifact-corrected, read-out: Half saturation (EC50), SSME); 83 µM at TMEM175 [2] (tool compounds, Cs+ flux, outward current at +80 mV, 0.05% BSA, read-out: Half saturation (EC50), APC). For the same molecule, on TMEM175 [2] (enhancer, (30 µM), relative to baseline current (100%)), the “Relative current, APC” value is on record as 137 ± 6% (30 µM). The “EC50 and maximum potentiation in the absence of BSA, APC” value on TMEM175 [2] (no BSA vs 0.05% BSA) is listed as “did not affect; also recorded: unaltered”. Further, at TMEM175 [2] (standard assay with 0.05% BSA), the “Maximum potentiation (increase in TMEM175 activity), APC” value was 34%. The “Increase in K+ flux through TMEM175, literature” value in the assay on TMEM175 [3] is listed as 14 fold.

In the case of `[H+]` [H^+], the EC50 on TMEM175 [4] was 9.5 µM.
